Assay results as given in ChEMBL document CHEMBL1201862, “PubChem BioAssay data set” (2004).
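Dose response: 5 concentrations. Exposure: 48 h. Format: 96-well plates. Endpoint: linear interpolation; highest concentration if not reached. GI50: concentration for 50% inhibition of growth.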 Active and inactive are the calls of the source. Rule as the data show it: active = GI50 up to about 1.1 µM and inactive = higher.

Legend:
Assay in all cases: NCI-60 cell line screen, 48 h
PC-3 = system: PC-3
HL-60 = system: HL-60
SNB-75 = system: SNB-75
MDA-MB-435 = system: MDA-MB-435
NCI/ADR-RES = system: NCI/ADR-RES
MDA-N = system: MDA-N
RXF 631 = system: RXF 631
Malme-3M = system: Malme-3M
NCI-H226 = system: NCI-H226
LXFL 529 = system: LXFL 529
SK-MEL-2 = system: SK-MEL-2
DMS-273 = system: DMS-273
DLD-1 = system: DLD-1
M19-MEL = system: M19-MEL
RXF 393 = system: RXF 393
DMS-114 = system: DMS-114
UACC-62 = system: UACC-62
SNB-78 = system: SNB-78
LOX IMVI = system: LOX IMVI
HOP-92 = system: HOP-92

Measured: GI50

CC(=O)Nc1ccc(Sc2nnc(NC(C)=O)s2)cc1
inactive: PC-3 > 100 µM | HL-60 > 100 µM | SNB-75 > 100 µM | MDA-MB-435 > 100 µM | NCI/ADR-RES > 100 µM | MDA-N > 100 µM

N#CCCN(CCC#N)c1ccc(/C=C(/NC(=O)Nc2ccccc2Cl)NC(=O)c2cc([N+](=O)[O-])ccc2Cl)cc1
inactive: RXF 631 > 100 µM | Malme-3M > 100 µM | NCI-H226 > 100 µM | LXFL 529 > 100 µM | SK-MEL-2 > 100 µM | DMS-273 > 100 µM | DLD-1 56.1 µM | M19-MEL > 100 µM | RXF 393 > 100 µM | DMS-114 > 100 µM | UACC-62 57.8 µM | SNB-78 > 100 µM | LOX IMVI > 100 µM | HOP-92 > 100 µM
